These results are taken from patent US11147272B2, “Pyridone compounds and agricultural and horticultural fungicides comprising the same as active ingredients” (MITSUI CHEMICALS AGRO, INC., priority 2017, dated 2021).

For test [1], the system named is Colletotrichum orbiculare. Kind of test: Test Example H: Anthracnose on cucumber. Particulars: Colletotrichum orbiculare, in Cucumis sativus, topical, read-out: Test H control value class.
Another test has as its system Alternaia brassicicola. Kind of test: Test Example C: Alternaria sooty spot on cabbage. It counts as in vivo. The note with it: Brassica oleracea, topical; Alternaria sooty spot on cabbage; class of control value; read-out: Test C control value class. The source says:
Seeds of a test plant (cabbage variety: Shikidori) were planted and cultivated until the cotyledons extended.
<Control Value> Control value=100{1−(n/3)}

In test [2] the test system is Blumeria graminis f. sp. hordei. Kind of test: Test Example D: Powdery mildew on barley. The note with it: Blumeria graminis, in Hordeum vulgare, topical, read-out: Test D control value class.
The test system of a further test is Magnaporthe grisea. Kind of test: whole plant or invertebrate. In kind it is in vivo. Particulars: Pyricularia oryzae, in Oryza sativa, read-out: Test A control value class.
The test system of the next test is Plasmopara viticola. Kind of test: Test Example G: Downy mildew on vine. The note with it: Plasmopara viticola, topical, read-out: Test G control value class.
For the next test, the system named is Botrytis cinerea. Kind of test: Test Example B: Gray mold on tomato. The note with it: Botrytis cinerea, in Solanum lycopersicum, topical, read-out: Test B control value class.
A further test deals with Phytophthora infestans. Kind of test: whole plant or invertebrate. It counts as in vivo. The note with it: Phytophthora infestans, in Solanum lycopersicum, topical, read-out: Test F control value class.
The next test deals with Puccinia recondita. Kind of test: Test Example E: Brown rust on wheat. It counts as in vivo. Particulars: Puccinia recondita, topical; Brown rust on wheat; class of control value; read-out: Test E control value class.

Turning to `CCn1c(-c2c(F)cccc2F)c(C=O)cc(Cl)c1=O` [Compound No. 20, 5-chloro-2-(2,6-difluorophenyl)-1-ethyl-6-oxo-1,6-dihydropyridine-3-carb aldehyde], the results for the pest or weed control at 250 ppm (in test [1]; in the test on Plasmopara viticola) were less than 50% and more than 50%, respectively. For the same compound, the pest or weed control at 250 µg/mL was less than 50% with Alternaia brassicicola; less than 50% in test [2]; more than 50% in the test on Magnaporthe grisea; more than 50% with Botrytis cinerea; less than 50% in the test on Phytophthora infestans; more than 50% with Puccinia recondita.

Regarding `CCn1c(-c2c(F)cccc2F)c(C(Br)Br)cc(Cl)c1=O` [Compound No. 21, 3-chloro-5-(dibromomethyl)-6-(2,6-difluorophenyl)-1-ethylpyridin-2(1H)-one], the results for the pest or weed control at 250 ppm (in test [1]; in the test on Plasmopara viticola) were less than 50% and more than 50%, respectively. The pest or weed control at 250 µg/mL in the test on Alternaia brassicicola is less than 50%; in test [2] it was more than 50%; in the test on Magnaporthe grisea, less than 50%; in the test with Botrytis cinerea, more than 50%; in the test on Phytophthora infestans, less than 50%; in the test on Puccinia recondita, more than 50%.

For `CCC(O)c1cc(Cl)c(=O)n(CC)c1-c1c(F)cccc1F` (stereo not shown) [Compound No. 24, 3-chloro-6-(2,6-difluorophenyl)-1-ethyl-5-(1-hydroxypropyl)pyridin-2(1H)-one], the results for the pest or weed control at 250 ppm (in test [1]; in the test with Plasmopara viticola) were more than 50% and less than 50%, respectively. Moreover, the pest or weed control at 250 µg/mL is more than 50% in the test on Alternaia brassicicola; more than 50% in test [2]; more than 50% with Magnaporthe grisea; more than 50% in the test on Botrytis cinerea; less than 50% in the test on Phytophthora infestans; more than 50% with Puccinia recondita.

For the compound `CCC(OC)c1cc(Cl)c(=O)n(CC)c1-c1c(F)cccc1F` (stereo not shown) [Compound No. 25, 3-chloro-6-(2,6-difluorophenyl)-1-ethyl-5-(1-methoxypropyl)pyridin-2(1H)-one], the pest or weed control at 250 ppm (in test [1]; in the test on Plasmopara viticola) was more than 50% in each case. Besides, the pest or weed control at 250 µg/mL was more than 50% in the test with Alternaia brassicicola; more than 50% in test [2]; more than 50% with Magnaporthe grisea; more than 50% in the test on Botrytis cinerea; less than 50% with Phytophthora infestans; more than 50% in the test with Puccinia recondita.

In the case of `CCC(=O)c1cc(Cl)c(=O)n(CC)c1-c1c(F)cccc1F` [Compound No. 26, 3-chloro-6-(2,6-difluorophenyl)-1-ethyl-5-propionylpyridin-2(1H)-one], the pest or weed control at 250 ppm (in test [1]; with Plasmopara viticola) was more than 50% each time. Besides, the pest or weed control at 250 µg/mL with Alternaia brassicicola was more than 50%; in test [2], more than 50%; in the test on Magnaporthe grisea, more than 50%; with Botrytis cinerea it was more than 50%; in the test on Phytophthora infestans, less than 50%; in the test with Puccinia recondita it was more than 50%.

Turning to `CCn1c(-c2c(F)cccc2F)c(C(C)(O)CC)cc(Cl)c1=O` (stereo not shown) [Compound No. 27, 3-chloro-6-(2,6-difluorophenyl)-1-ethyl-5-(2-hydroxybutan-2-yl)pyridin-2(1H)-one], the pest or weed control at 250 ppm (in test [1]; in the test on Plasmopara viticola) was more than 50% throughout. Moreover, the pest or weed control at 250 µg/mL was more than 50% with Alternaia brassicicola; more than 50% in test [2]; more than 50% in the test on Magnaporthe grisea; more than 50% with Botrytis cinerea; less than 50% in the test with Phytophthora infestans; more than 50% in the test on Puccinia recondita.

As for `CCn1c(-c2c(F)cccc2F)c(C(C)(CC)OC)cc(Cl)c1=O` (stereo not shown) [Compound No. 29, 3-chloro-6-(2,6-difluorophenyl)-1-ethyl-5-(2-methoxybutan-2-yl)pyridin-2(1H)-one], the pest or weed control at 250 ppm (in test [1]; in the test with Plasmopara viticola) was more than 50% throughout. Further, the pest or weed control at 250 µg/mL in the test with Alternaia brassicicola is more than 50%; in test [2], more than 50%; with Magnaporthe grisea, more than 50%; in the test on Botrytis cinerea, more than 50%; in the test on Phytophthora infestans, less than 50%; with Puccinia recondita it was more than 50%.

As to `CCn1c(-c2c(F)cccc2F)c(C(C)(F)CC)cc(Cl)c1=O` (stereo not shown) [Compound No. 30, 3-chloro-6-(2,6-difluorophenyl)-1-ethyl-5-(2-fluorobutan-2-yl)pyridin-2(1H)-one], the pest or weed control at 250 ppm (in test [1]; in the test on Plasmopara viticola) was more than 50% in each case. For the same compound, the pest or weed control at 250 µg/mL with Alternaia brassicicola was more than 50%; in test [2], more than 50%; in the test with Magnaporthe grisea it was more than 50%; with Botrytis cinerea it was more than 50%; in the test on Phytophthora infestans it was less than 50%; in the test with Puccinia recondita, more than 50%.

Turning to `CCn1c(-c2c(F)cccc2F)c(C(O)C(C)C)cc(Cl)c1=O` (stereo not shown) [Compound No. 53, 3-chloro-6-(2,6-difluorophenyl)-1-ethyl-5-(1-hydroxy-2-methylpropyl)pyridin-2(1H)-one], the pest or weed control at 250 ppm (in test [1]; with Plasmopara viticola) was more than 50% in each case. Further, the pest or weed control at 250 µg/mL in the test with Alternaia brassicicola was more than 50%; in test [2] it was more than 50%; with Magnaporthe grisea, more than 50%; in the test on Botrytis cinerea, more than 50%; in the test with Phytophthora infestans it was less than 50%; with Puccinia recondita, more than 50%.

Turning to `CCn1c(-c2c(F)cc(F)cc2F)c(CN(C)OC)cc(Cl)c1=O` [Compound No. 89, 3-chloro-1-ethyl-5-((methoxy(methyl)amino)methyl)-6-(2,4,6-trifluorophenyl)pyridin-2(1H)-one], the pest or weed control at 250 ppm in test [1] was more than 50%; in the test with Plasmopara viticola it was less than 50%. In addition, the pest or weed control at 250 µg/mL in the test with Alternaia brassicicola is more than 50%; in test [2] it was more than 50%; with Magnaporthe grisea, more than 50%; in the test on Botrytis cinerea, more than 50%; with Phytophthora infestans, less than 50%; with Puccinia recondita it was more than 50%.

Take `CCOc1cc(F)c(-c2c(CN(C)OC)cc(Cl)c(=O)n2CC)c(F)c1` [Compound No. 93, 3-chloro-6-(4-ethoxy-2,6-difluorophenyl)-1-ethyl-5-((methoxy(methyl)amino)methyl)pyridin-2(1H)-one]: the pest or weed control at 250 ppm (in test [1]; with Plasmopara viticola) was more than 50% throughout. The pest or weed control at 250 µg/mL in the test with Alternaia brassicicola was more than 50%; in test [2], more than 50%; in the test on Magnaporthe grisea, more than 50%; with Botrytis cinerea it was more than 50%; with Phytophthora infestans, less than 50%; in the test on Puccinia recondita, more than 50%.

Take `CCn1c(-c2ccc(F)cc2Cl)c(CC(C)C)ccc1=O` [Compound No. 98, 6-(2-chloro-4-fluorophenyl)-1-ethyl-5-isobutylpyridin-2(1H)-one]: the pest or weed control at 250 ppm (in test [1]; in the test on Plasmopara viticola) was less than 50% in each case. Further, the pest or weed control at 250 µg/mL in the test on Alternaia brassicicola is more than 50%; in test [2] it was more than 50%; in the test with Magnaporthe grisea, more than 50%; with Botrytis cinerea, more than 50%; in the test on Phytophthora infestans, less than 50%; with Puccinia recondita, more than 50%.

Regarding `CCn1c(-c2ccc(F)cc2Cl)c(CC(C)C)cc(Cl)c1=O` [Compound No. 99, 3-chloro-6-(2-chloro-4-fluorophenyl)-1-ethyl-5-isobutylpyridin-2(1H)-one], the pest or weed control at 250 ppm (in test [1]; in the test with Plasmopara viticola) was more than 50% throughout. Moreover, the pest or weed control at 250 µg/mL (with Alternaia brassicicola; in test [2]; with Magnaporthe grisea; with Botrytis cinerea; in the test with Phytophthora infestans; in the test with Puccinia recondita) was more than 50% in each case.

Take `CCn1c(-c2c(F)cccc2F)c(C(C)(O)C(C)C)cc(Cl)c1=O` (stereo not shown) [Compound No. 183, 3-chloro-6-(2,6-difluorophenyl)-1-ethyl-5-(2-hydroxy-3-methylbutan-2-yl)pyridin-2(1H)-one]: the pest or weed control at 250 ppm (in test [1]; in the test on Plasmopara viticola) was more than 50% in each case. In addition, the pest or weed control at 250 µg/mL (in the test with Alternaia brassicicola; in test [2]; with Magnaporthe grisea; in the test with Botrytis cinerea; in the test on Phytophthora infestans; with Puccinia recondita) was more than 50% throughout.
